Measured values from patent publication US20220298160A1, “COMPOUNDS USEFUL IN HIV THERAPY” (priority 2019, published 2022).
Like-named read-outs stand apart in the source and are kept apart here.

How the values were obtained:
[1] = system: HIV pseudotyped virus (NL4-3 provirus), WT; assay: PSV assay (pseudotyped virus assay), WT; conditions: U373 cells expressing human CD4 and CXCR4 or CCR5, luciferase signal after 3 days of culture
Text: A pseudotyped virus assay (PSV) was used to assess the potency of the HIV inhibitor. Replication defective virus was produced by co-transfection of a plasmid containing an NL4-3 provirus [containing a mutation in the envelope open reading frame (ORF) and a luciferase reporter gene replacing the nef ORF] and a CMV-promoter expression plasmid containing an ORF for various HIV gp160 envelope clones. The harvested virus was stored at −80 C in small aliquots and the titer of the virus measured to produce a robust signal for antiviral assays.
The PSV assay was performed by using U373 cells stably transformed to express human CD4, the primary receptor for HIV entry and either human CXCR4 or human CCR5 which are the co-receptors required for HIV entry as target cells for infection. […] This dose-range was applied to U373 cells and the pre-made pseudotyped virus added. The amount of luciferase signal produced after 3 days of culture was used to reflect the level of pseudotyped virus infection. An IC50, or the concentration of inhibitor required to reduce PSV infection by 50% from the infection containing no inhibitor was calculated. […] IC50 values were determined from a 10 point dose response curve using 3-4-fold serial dilution for each compound, which spans a concentration range >1000 fold.

[2] = system: HIV pseudotyped virus (NL4-3 provirus), M184V; assay type: cell-based; conditions: PSV assay; U373 cells expressing human CD4 and CXCR4 or CCR5; luciferase signal after 3 days of culture
[3] = Human immunodeficiency virus 1, NL43, in Homo sapiens, 72 h, read-out: WT IC50 (μM), PSV assay

Compound | IC50 [1, 3] [µM] | IC50 [2] [nM] | IC50 ([1]; read-out: WT IC50, PSV assay) [µM]
C#C[C@]1(CO)O[C@@H](n2cnc3c(NC(=O)OC(COCCCCCCCCC)COC(=O)CCCCCCCC)nc(F)nc32)C[C@@H]1O (single isomer, unassigned) [Example 35] | 0.0112 | 33.1 | 
C#C[C@]1(CO)O[C@@H](n2cnc3c(NC(=O)OC(COCCCCCCCCC)COC(=O)CCCCCCCC)nc(F)nc32)C[C@@H]1O (single isomer, unassigned) [Example 36] |  | 22.9 | 0.0085
C#C[C@]1(CO)O[C@@H](n2cnc3c(NC(=O)OC(COCCCCC)COC(=O)CCCC)nc(F)nc32)C[C@@H]1O (single isomer, unassigned) [Example 37] | 0.0095 | 32.4 | 
C#C[C@]1(CO)O[C@@H](n2cnc3c(NC(=O)OC(COCCCCC)COC(=O)CCCC)nc(F)nc32)C[C@@H]1O (single isomer, unassigned) [Example 38] |  | 23.4 | 0.007
C#C[C@]1(COC(=O)NCCCCCCCCCCCCCCCCCC)O[C@@H](n2cnc3c(N)nc(F)nc32)C[C@@H]1O [Example 1, ((2R,3S,5R)-5-(6-amino-2-fluoro-9H-purin-9-yl)-2-ethynyl-3-hydroxytetrahydrofuran-2-yl)methyl octadecylcarbamate] | > 25 | > 25000 | 
C#C[C@]1(COC(=O)NCCCCCCCC)O[C@@H](n2cnc3c(N)nc(F)nc32)C[C@@H]1O [Example 2, ((2R,3S,5R)-5-(6-amino-2-fluoro-9H-purin-9-yl)-2-ethynyl-3-hydroxytetrahydrofuran-2-yl)methyl octylcarbamate] | > 25 | > 25000 | 
C#C[C@]1(COC(=O)NCCCCCCCCCCCC)O[C@@H](n2cnc3c(N)nc(F)nc32)C[C@@H]1O [Example 3, ((2R,3S,5R)-5-(6-amino-2-fluoro-9H-purin-9-yl)-2-ethynyl-3-hydroxytetrahydrofuran-2-yl)methyl dodecylcarbamate] | 2.01 | 8170 | 
C#C[C@]1(COC(=O)NCCCCC)O[C@@H](n2cnc3c(N)nc(F)nc32)C[C@@H]1O [Example 4, ((2R,3S,5R)-5-(6-amino-2-fluoro-9H-purin-9-yl)-2-ethynyl-3-hydroxytetrahydrofuran-2-yl)methyl pentylcarbamate] | 2.66 | > 25000 | 
C#C[C@]1(COC(=O)NC)O[C@@H](n2cnc3c(N)nc(F)nc32)C[C@@H]1O [Example 5, ((2R,3S,5R)-5-(6-amino-2-fluoro-9H-purin-9-yl)-2-ethynyl-3-hydroxytetrahydrofuran-2-yl)methyl methylcarbamate] | 15.4 | > 25000 | 
C#C[C@]1(COC(=O)NC(C)C)O[C@@H](n2cnc3c(N)nc(F)nc32)C[C@@H]1O [Example 6, ((2R,3S,5R)-5-(6-amino-2-fluoro-9H-purin-9-yl)-2-ethynyl-3-hydroxytetrahydrofuran-2-yl)methyl isopropylcarbamate] | 0.56 | 1080 | 
C#C[C@]1(COC(=O)N(CC)CC)O[C@@H](n2cnc3c(N)nc(F)nc32)C[C@@H]1O [Example 7, ((2R,3S,5R)-5-(6-amino-2-fluoro-9H-purin-9-yl)-2-ethynyl-3-hydroxytetrahydrofuran-2-yl)methyl diethylcarbamate] | 1.28 | 2410 | 
C#C[C@]1(COC(=O)NC(C)(C)C)O[C@@H](n2cnc3c(N)nc(F)nc32)C[C@@H]1O [Example 8, ((2R,3S,5R)-5-(6-amino-2-fluoro-9H-purin-9-yl)-2-ethynyl-3-hydroxytetrahydrofuran-2-yl)methyl tert-butylcarbamate] | 0.142 | 1130 | 
C#C[C@]1(COC(=O)OC(COC(=O)CCCCCCCC)COC(=O)CCCCCCCC)O[C@@H](n2cnc3c(N)nc(F)nc32)C[C@@H]1O [Example 9, 2-(((((2R,3S,5R)-5-(6-amino-2-fluoro-9H-purin-9-yl)-2-ethynyl-3-hydroxytetrahydrofuran-2-yl)methoxy)carbonyl)oxy)propane-1,3-diyl dinonanoate] | 0.0049 | 22.1 | 
C#C[C@]1(COC(=O)OC2COC(=O)CCCCCCCCCCCC(=O)OC2)O[C@@H](n2cnc3c(N)nc(F)nc32)C[C@@H]1O [Example 10, ((2R,3S,5R)-5-(6-amino-2-fluoro-9H-purin-9-yl)-2-ethynyl-3-hydroxytetrahydrofuran-2-yl)methyl (6,18-dioxo-1,5-dioxacyclooctadecan-3-yl) carbonate] | 0.0097 | 31.3 | 
C#C[C@]1(CO)O[C@@H](n2cnc3c(N)nc(F)nc32)C[C@@H]1OC(=O)OCc1ccc(OC(=O)CCCCCCCCCCCCCCCCCCC)cc1 [Example 11, 4-((((((2R,3S,5R)-5-(6-amino-2-fluoro-9H-purin-9-yl)-2-ethynyl-2-(hydroxymethyl)tetrahydrofuran-3-yl)oxy)carbonyl)oxy)methyl)phenyl icosanoate] | 2.31 | 3210 | 
C#C[C@]1(CO)O[C@@H](n2cnc3c(N)nc(F)nc32)C[C@@H]1OC(=O)OCc1ccc(OC(=O)CCCCCCCCCCCCC)cc1 [Example 12, 4-((((((2R,3S,5R)-5-(6-amino-2-fluoro-9H-purin-9-yl)-2-ethynyl-2-(hydroxymethyl)tetrahydrofuran-3-yl)oxy)carbonyl)oxy)methyl)phenyl tetradecanoate] | 0.017 | 66.3 | 
C#C[C@]1(COC(=O)OCc2ccc(OC(=O)CCCCCCCCCCCCC)cc2)O[C@@H](n2cnc3c(N)nc(F)nc32)C[C@@H]1O [Example 13, 4-((((((2R,3S,5R)-5-(6-amino-2-fluoro-9H-purin-9-yl)-2-ethynyl-3-hydroxytetrahydrofuran-2-yl)methoxy)carbonyl)oxy)methyl)phenyl tetradecanoate] | 0.0072 | 17.8 | 
C#C[C@]1(COC(=O)OCc2ccc(OC(=O)CCCCCCCCCCCCCCCCCCC)cc2)O[C@@H](n2cnc3c(N)nc(F)nc32)C[C@@H]1O [Example 14, 4-((((((2R,3S,5R)-5-(6-amino-2-fluoro-9H-purin-9-yl)-2-ethynyl-3-hydroxytetrahydrofuran-2-yl)methoxy)carbonyl)oxy)methyl)phenyl icosanoate] | 1.55 | 2410 | 
C#C[C@]1(CO)O[C@@H](n2cnc3c(N)nc(F)nc32)C[C@@H]1OC(=O)NCCCCCCCCCCCC [Example 15, (2R,3S,5R)-5-(6-amino-2-fluoro-9H-purin-9-yl)-2-ethynyl-2-(hydroxymethyl)tetrahydrofuran-3-yl dodecylcarbamate] | > 15 | > 15000 | 
C#C[C@]1(CO)O[C@@H](n2cnc3c(N)nc(F)nc32)C[C@@H]1OC(=O)NCCCCCCCCCCCCCCCCCC [Example 16, (2R,3S,5R)-5-(6-amino-2-fluoro-9H-purin-9-yl)-2-ethynyl-2-(hydroxymethyl)tetrahydrofuran-3-yl octadecylcarbamate] | 15 | 22400 | 
C#C[C@]1(CO)O[C@@H](n2cnc3c(N)nc(F)nc32)C[C@@H]1OC(=O)NCCCCCCCC [Example 17, (2R,3S,5R)-5-(6-amino-2-fluoro-9H-purin-9-yl)-2-ethynyl-2-(hydroxymethyl)tetrahydrofuran-3-yl octylcarbamate] | > 15 | > 15000 | 
C#C[C@]1(CO)O[C@@H](n2cnc3c(N)nc(F)nc32)C[C@@H]1OC(=O)NC [Example 18, (2R,3S,5R)-5-(6-amino-2-fluoro-9H-purin-9-yl)-2-ethynyl-2-(hydroxymethyl)tetrahydrofuran-3-yl methylcarbamate] | 2.03 | 9110 | 
C#C[C@]1(CO)O[C@@H](n2cnc3c(N)nc(F)nc32)C[C@@H]1OC(=O)NCCCCC [Example 19, (2R,3S,5R)-5-(6-amino-2-fluoro-9H-purin-9-yl)-2-ethynyl-2-(hydroxymethyl)tetrahydrofuran-3-yl pentylcarbamate] | 1.77 | 9440 | 
C#C[C@]1(CO)O[C@@H](n2cnc3c(N)nc(F)nc32)C[C@@H]1OC(=O)NC(C)C [Example 20, (2R,3S,5R)-5-(6-amino-2-fluoro-9H-purin-9-yl)-2-ethynyl-2-(hydroxymethyl)tetrahydrofuran-3-yl isopropylcarbamate] | 10.5 | > 25000 | 
C#C[C@]1(CO)O[C@@H](n2cnc3c(N)nc(F)nc32)C[C@@H]1OC(=O)N(CC)CC [Example 21, (2R,3S,5R)-5-(6-amino-2-fluoro-9H-purin-9-yl)-2-ethynyl-2-(hydroxymethyl)tetrahydrofuran-3-yl diethylcarbamate] | 14.7 | > 25000 | 
C#C[C@]1(CO)O[C@@H](n2cnc3c(N)nc(F)nc32)C[C@@H]1OC(=O)N1CCC(C)CC1 [Example 22, (2R,3S,5R)-5-(6-amino-2-fluoro-9H-purin-9-yl)-2-ethynyl-2-(hydroxymethyl)tetrahydrofuran-3-yl 4-methylpiperidine-1-carboxylate] | 11.7 | > 25000 | 
C#C[C@]1(CO)O[C@@H](n2cnc3c(N)nc(F)nc32)C[C@@H]1OC(=O)NC(C)(C)C [Example 23, (2R,3S,5R)-5-(6-amino-2-fluoro-9H-purin-9-yl)-2-ethynyl-2-(hydroxymethyl)tetrahydrofuran-3-yl tert-butylcarbamate] | > 25 | > 25000 | 
C#C[C@]1(CO)O[C@@H](n2cnc3c(N)nc(F)nc32)C[C@@H]1OC(=O)NC1CC1 [Example 24, (2R,3S,5R)-5-(6-amino-2-fluoro-9H-purin-9-yl)-2-ethynyl-2-(hydroxymethyl)tetrahydrofuran-3-yl cyclopropylcarbamate] | 1.48 | 3740 | 
C#C[C@]1(CO)O[C@@H](n2cnc3c(N)nc(F)nc32)C[C@@H]1OC(=O)NCC(=O)OCC [Example 25, ethyl ((((2R,3S,5R)-5-(6-amino-2-fluoro-9H-purin-9-yl)-2-ethynyl-2-(hydroxymethyl)tetrahydrofuran-3-yl)oxy)carbonyl)glycinate] | 1.18 | 1260 | 
